Each block holds one molecule with its values, some of them ahead of it. Where a SMILES comes first, the peptide text is derived from it. The star is where a group is joined. Cbz = O=C(OCc1ccccc1)*
Columns and labels:
GFP-FAN1 = assay: cycloheximide chase, FAN1 protein half-life; type: cell-based, human; conditions: U2OS eGFP-FAN1 cells, CHX 100 μg/ml, n = 3
Method: If not stated otherwise, cells were lysed in RIPA buffer (50 mM Tris-HCl, pH 7.5, 150 mM NaCl, 1% IGEPAL, 0.5% sodium deoxycholate, 0.1% SDS) supplemented with phosphatase inhibitors (20 mM NaF and 1 mM Na3VO4) and protease inhibitors (1 mM benzamidine and 0.1 mM PMSF), incubated with Benzonase (Merck) for at least 30 min at 4 °C, and clarified by centrifugation. Proteins were resolved by SDS-PAGE and transferred to nitrocellulose membranes. Immunoblots were performed with the indicated antibodies, and proteins were visualized using the Advansta WesternBright ECL reagent and the Fusion Solo S imaging system. Relative protein levels were determined by quantification of the protein of interest band intensity normalized to the loading control with the ImageJ software. […]
were determined by quantification of FAN1 band intensity (normalized to α-Tubulin) with the ImageJ software. […] 24 h post induction, cells were either mock-treated or treated with CHX (100 μg/ml) for the indicated time points and whole-cell lysates were analysed by immunoblotting (top panel). Relative GFP-FAN1 protein levels were determined by quantification of GFP-FAN1 band intensity (normalized to GAPDH) with the ImageJ software (bottom panel; siCtrl: black square; siUSP7#1: blue triangle; siUSP7#2: cyan inverted triangle). […] Inputs and recovered protein complexes were analysed by immunoblotting. […]

FAN1 protein level = assay: immunoblot of FAN1 protein levels, RPE-1 cells; type: cell-based, human; conditions: USP7-depleted RPE-1 cells, MG-132 10 μM for 6 h
Method: (§1) Fig. 3 USP7 deubiquitinates FAN1 controlling its protein levels. A RPE-1 parental and p53 KO cell lines were transfected with either non-targeting (Ctrl) or USP7 siRNA oligos. 48 h later, whole-cell lysates were analysed by immunoblotting. B Doxycycline-inducible U2OS^eGFP-FAN1 cells were transfected with either non-targeting (Ctrl) or USP7 siRNA oligos. 24 h later, GFP-FAN1 expression was induced with Dox (100 ng/ml) for 24 h and whole-cell lysates were analysed by immunoblotting. C Same cells as in B were induced with Dox (100 ng/ml). 24 h later, cells were either mock-treated with DMSO (–) or treated (+) with either FT671 or GNE-6640 (10 μM) for 24 h and whole-cell lysates were analysed by immunoblotting. D Same cells as in B were transfected with either non-targeting (Ctrl) or USP7 siRNA oligos. […] 24 h post induction, cells were either mock-treated (−) or treated (+) with MG-132 (10 μM) for 6 h and whole-cell lysates were analysed by immunoblotting. […] 24 h post induction, whole-cell lysates were analysed by immunoblotting. […] Inputs and recovered protein complexes were analysed by immunoblotting. […] Inputs and recovered protein complexes were analysed by immunoblotting. […] In (A–E), relative FAN1 protein levels were determined by quantification of FAN1 band intensity (normalized to GAPDH or Lamin B1 loading controls) with the ImageJ software. […]

GFP-FAN1 protein level = assay: immunoblot of GFP-FAN1 protein levels, U2OS eGFP-FAN1 cells; type: cell-based, human; conditions: USP7-depleted U2OS eGFP-FAN1 cells, MG-132 10 μM for 6 h
Method: as §1

FAN1 = assay: pull-down of MBP-His-FAN1 by biotin-tagged USP7 fragments; type: binding, human; conditions: biotin-tagged USP7 fragments 6 µg, MBP-His-FAN1 1 µg
Method: All plasmids were transformed into BL21(DE3)-pBirAcm cells. The cells were grown using a Large-scale EXpression (LEX) bioreactor at 37 °C. Once OD600 reached 0.7, the temperature was reduced to 15 °C. At OD600 0.8-1, expression of biotinylated proteins was induced by adding 25 mg/L biotin and 0.5 mM isopropyl β-d-1-thiogalactopyranoside (IPTG), and growth continued overnight. Cell cultures were harvested by centrifugation at 6500 g, 10 min, 10 °C (JLA8.1000). Pellets were flash-frozen in liquid nitrogen and stored at −80 °C prior to purification. Cell pellets were thawed, diluted with pre-chilled resuspension buffer (20 mM HEPES pH7.4, 500 mM NaCl, 5% (v/v) glycerol, 1 mM TCEP) and supplemented with 3 μg/ml benzonase, 2 mM MgSO4 and 0.8 mM PMSF/benzamidine-HCl. The mixture was homogenized and lysed by sonication, 60 cycles of 5 s pulse followed by 7.5 s rest. Cell lysates were clarified by centrifugation at 40000 g, 1 hr, 10 °C (JLA16.250). […] Protein purity was analysed by SDS-PAGE and identity was confirmed by mass spectrometry. […]
Transformed clones of chemocompetent BL21 bacteria were picked and inoculated in LB medium supplemented with 50 μg/ml kanamycin, subsequently incubated at 37 °C overnight under agitation at 250 rpm. […] Purity of the protein was assessed by boiling in SDS sample buffer and separating by SDS-PAGE followed by staining using Coomassie Blue. […]

Molecule: C[C@@H]1C[C@@H]([C@H](O)CC2CC(=O)NC(=O)C2)C(=O)[C@@H](C)C1 [CHX, cycloheximide]
FAN1 protein half-life (GFP-FAN1): reduced protein half-life

Molecule: CC(C)C[C@@H](C=O)NC(=O)[C@H](CC(C)C)NC(=O)[C@H](CC(C)C)NC(=O)OCc1ccccc1 [MG132] (Cbz-Leu-Leu-Leu-aldehyde)
FAN1 levels with proteasome inhibitor (FAN1 protein level): FAN1 levels were restored
FAN1 levels with proteasome inhibitor (GFP-FAN1 protein level): FAN1 levels were restored

binding of USP7 domain to FAN1 in vitro (FAN1): strongest
Molecule: TRAF domain: purified recombinant biotin-tagged USP7 fragment
